Experimental data: patent publication US12599685B2, “Tumor stroma imaging agent and preparation method thereof” (SHANGHAI UNIVERSITY OF MEDICINE & HEALTH SCIENCES, priority 2020, dated 2026)

Experiments:
HT-1080-FAP cell line = experiment: Cell binding experiment of (S)-[18F]-AlF-NOTA-Bn-FAPI-4; type: cell-based, human; details: 1 h incubation
Protocol: (S)—[^18F]—AlF-NOTA-Bn-FAPI-4 was adopted as an experimental group, AlF-FAPI-75+(S)—[^18F]—AlF-NOTA-Bn-FAPI-4 was adopted as a blockage group, and free ^18F^− was adopted as a control group.
A human fibrosarcoma cell HT-1080-FAP (HT-1080-FAP cell line) transfected by an FAP gene was activated to obtain an HT-1080-FAP cell suspension.
(§1) The experimental group: 2 mL of the HT-1080-FAP cell suspension was taken and washed three times with frozen PBS. A complete medium including the imaging agent (S)—[^18F]—AlF-NOTA-Bn-FAPI-4 (2.96 MBq, 80 μCi) was added, and the resulting mixture was incubated for 1 h. The cells were washed three times with frozen PBS, and 0.5 mL of NaOH-sodium dodecyl sulfate (SDS) (1M NaOH, 1% SDS) was added for lysis. The resulting cell lysate was finally collected, placed in a marked γ-counting tube, and subjected to γ-counting.
as §1, with “blockage” for “experimental”, “PBS. A complete medium including the blocker AlF-FAPI-75 was added, and the resulting mixture was incubated for 0.5 h.” for “PBS.”, “NaOH-SDS (1 M” for “NaOH-sodium dodecyl sulfate (SDS) (1M”
as §1, with “control” for “experimental”, “free ^18F^−” for “imaging agent (S)—[^18F]—AlF-NOTA-Bn-FAPI-4”, “NaOH-SDS (1 M” for “NaOH-sodium dodecyl sulfate (SDS) (1M”, “γ-counting. The final volumes of the groups were the same.” for “γ-counting.”

tumor-bearing mice = experiment: Biodistribution in tumor-bearing mice; type: in vivo
Protocol: Six mice were divided into an experimental group and a blockage group with 3 mice in each group. Mice in the experimental group each were injected with (S)—[^18F]—AlF-NOTA-Bn-FAPI-4 (3.7 MBq, 100 μCi) through a tail vein within 1 min, and 60 min later, the mice each were sacrificed by cutting a carotid artery for bloodletting. Mice in the blockage group each were injected with 100 μg of the blocker AlF-FAPI-75 (1,000 μg/mL) through a tail vein and injected with (S)—[^18F]—AlF-NOTA-Bn-FAPI-4 (3.7 MBq, 100 μCi) through a tail vein 30 min later, and 60 min later, the mice each were sacrificed by cutting a carotid artery for bloodletting. The heart, liver, lung, kidney, spleen, brain, and the like were collected, weighed, and tested for radioactivity. Finally, an (S)—[^18F]—AlF-NOTA-Bn-FAPI-4 radioactivity uptake rate (a percentage of uptake radioactivity per gram of tissue in the injected radioactivity, ID/g) in each of blood and various organs and a radioactivity ratio of a target organ to a non-target organ (T/NT) were calculated at different time points.

[1] = blockage group: 100 μg AlF-FAPI-75 i.v. 30 min before tracer, 1 h after injection
[2] = experimental group, 1 h after tail vein injection, 3.7 MBq
[3] = tumor-bearing mice, 1 h after injection

**Q.** With (S)—[^18F]—AlF-NOTA-Bn-FAPI-4 as the substance, how does the “absorption of tumor cells, experimental group relative to blockage group” value (HT-1080-FAP cell line; t=6.713, P<0.05) read?
**A.** The value was 3 times.

**Q.** What about the “absorption of tumor cells, experimental group relative to control group (free 18F-)” value (HT-1080-FAP cell line; t=8.934, P<0.01) of the same substance?
**A.** Its value is 33.31 times.

**Q.** And the Radioactivity count value (HT-1080-FAP cell line; HT-1080-FAP cells, 2.96 MBq (80 μCi), no blocker)?
**A.** The Radioactivity count value was 5999.98 ± 864.12 γ count value/min.

**Q.** What about the Radioactivity count value (HT-1080-FAP cell line; blockage group: blocker AlF-FAPI-75 incubated 0.5 h, then imaging agent 2.96 MBq) of the same substance?
**A.** The Radioactivity count value was 2000.01 ± 113.34 γ count value/min.

**Q.** What about the “Distribution, Blood” value (tumor-bearing mice; [1]) of the same substance?
**A.** Its value is 0.13±0.10 % ID/g.

**Q.** And the “Distribution, Bone” value (tumor-bearing mice; [1])?
**A.** Its value is 0.06 ± 0.01 % ID/g.

**Q.** And the “Distribution, Brain” value (tumor-bearing mice; [1])?
**A.** Its value is 0.03 ± 0.01 % ID/g.

**Q.** And the “Distribution, Heart” value (tumor-bearing mice; [1])?
**A.** The value was 0.08 ± 0.05 % ID/g.

**Q.** And the “Distribution, Intestine” value (tumor-bearing mice; [1])?
**A.** The value was 0.16 ± 0.02 % ID/g.

**Q.** What about the “Distribution, Kidney” value (tumor-bearing mice; [1]) of the same substance?
**A.** Its value is 0.84±0.21 % ID/g.

**Q.** And the “Distribution, Liver” value (tumor-bearing mice; [1])?
**A.** Its value is 0.08 ± 0.04 % ID/g.

**Q.** What about the “Distribution, Lung” value (tumor-bearing mice; [1]) of the same substance?
**A.** The value was 0.28 ± 0.19 % ID/g.

**Q.** What about the “Distribution, Muscle” value (tumor-bearing mice; [1]) of the same substance?
**A.** Its value is 0.09 ± 0.03 % ID/g.

**Q.** What about the “Distribution, Spleen” value (tumor-bearing mice; [1]) of the same substance?
**A.** Its value is 0.16 ± 0.14 % ID/g.

**Q.** What about the “Distribution, Tumor” value (tumor-bearing mice; [1]) of the same substance?
**A.** The value was 0.22±0.05 % ID/g.

**Q.** And the “Distribution, Blood” value (tumor-bearing mice; [2])?
**A.** The value was 0.10±0.04 % ID/g.

**Q.** And the “Distribution, Bone” value (tumor-bearing mice; [2])?
**A.** The value was 0.15 ± 0.03 % ID/g.

**Q.** And the “Distribution, Brain” value (tumor-bearing mice; [2])?
**A.** The value was 0.02 ± 0.01 % ID/g.

**Q.** And the “Distribution, Heart” value (tumor-bearing mice; [2])?
**A.** The value was 0.09 + 0.09 % ID/g.

**Q.** What about the “Distribution, Intestine” value (tumor-bearing mice; [2]) of the same substance?
**A.** Its value is 0.19 ± 0.06 % ID/g.

**Q.** What about the “Distribution, Kidney” value (tumor-bearing mice; [2]) of the same substance?
**A.** Its value is 0.94±0.20 % ID/g.

**Q.** What about the “Distribution, Liver” value (tumor-bearing mice; [2]) of the same substance?
**A.** The value was 0.07 ± 0.05 % ID/g.

**Q.** And the “Distribution, Lung” value (tumor-bearing mice; [2])?
**A.** The value was 0.16 ± 0.08 % ID/g.

**Q.** And the “Distribution, Muscle” value (tumor-bearing mice; [2])?
**A.** Its value is 0.16 ± 0.05 % ID/g.

**Q.** And the “Distribution, Spleen” value (tumor-bearing mice; [2])?
**A.** Its value is 0.10 ± 0.01 % ID/g.

**Q.** What about the “Distribution, Tumor” value (tumor-bearing mice; [2]) of the same substance?
**A.** The value was 1.12±0.06 % ID/g.

**Q.** What about the “clearance in the blood” value (tumor-bearing mice; [3]) of the same substance?
**A.** Its value is “quickly cleared in the blood”.

**Q.** What about the route of excretion (tumor-bearing mice; [3]) of the same substance?
**A.** The route of excretion was “mainly excreted by the kidney”.
